Reference: patent US12365687B2 (Hoffmann-La Roche Inc., priority 2021, dated 2025)

Assays:
[1] = molecular target: human GABAA α2β2γ1 receptor (Homo sapiens (Human), UniProt P47869+Q8N1C3); assay: Radioligand binding assay for γ1-containing GABAA subtypes, [3H]RO7239181 competition (α2β2γ1)
[2] = molecular target: α2β2γ1 GABAA receptor subtype (Homo sapiens (Human), UniProt P47869+Q8N1C3); assay: Two-electrode voltage clamp electrophysiology in Xenopus oocytes expressing GABAA receptors (modulation of GABA EC20 current); format: cell-based; conditions: for Efficacy (GABA)%: % modulation of GABA EC20 = 100*(Fold increase-1), α2β2γ1 oocytes, compound at approx. 30-fold Ki; for Fold increase h-GABA-A α2β2γ1 oocyte @ 30-fold Ki: Xenopus oocytes expressing α2β2γ1, compound at approx. 30-fold its Ki α2β2γ1, GABA EC20 current
Procedure, shortened: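 Two-electrode voltage clamp at −80 mV, room temperature, 3-5 days after mRNA injection into oocytes. GABA applied at EC20 for 1.5 min, twice, with compound during second application; at least 3 oocytes per concentration. Efficacy = extremum of point-by-point current ratio, expressed as 100×(fold increase−1).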

[3] = molecular target: human GABAA α1β3γ2 receptor (Homo sapiens (Human), UniProt P14867+P18507); assay: Radioligand binding assay for γ2-containing GABAA subtypes, [3H]Flumazenil competition (α1β3γ2); conditions: for γ2/γ1 Selectivity Ratio: Ki α1β3γ2 (nM)/Ki α2β2γ1 (nM); for LogSel: Log[Ki α1β3γ2 (nM)/Ki α2β2γ1 (nM)]
[4] = molecular target: human GABAA α5β2γ1 receptor (Homo sapiens (Human), UniProt P31644+Q8N1C3); assay: Radioligand binding assay for γ1-containing GABAA subtypes, [3H]RO7239181 competition (α5β2γ1)
[5] = Ki h-GABAA α2β2γ1, [3H]RO7239181 competition binding, human GABAA α2β2γ1
[6] = Ki h-GABAA α2β2γ1, displacement of [3H]RO7239181, membranes of HEK293F cells expressing human receptors, means of two determinations

SMILES	Ki [1, 5] [nM]	Ki [1, 6] [nM]	Efficacy (GABA)% [2] [%]	Fold increase h-GABA-A α2β2γ1 oocyte @ 30-fold Ki [2]	Ki [3] [nM]	γ2/γ1 Selectivity Ratio [3]	LogSel [3]	Ki [4] [nM]
C[C@H](O)CNC(=O)c1cn2c(n1)[C@H](C)N=C(c1ncccc1F)c1c-2ccc(C(F)(F)F)c1Cl [Example 155, (4S)-7-chloro-6-(3-fluoro-2-pyridyl)-4-methyl-N-[(2S)-2-hydroxypropyl]-8-(trifluoromethyl)-4H-imidazo[1,2-a][1,4]benzodiazepine-2-carboxamide]	49.7	49.3	193	2.93	8990	182.4	2.26	10.8
C[C@@H]1N=C(c2ncccc2F)c2c(ccc(C(F)(F)F)c2Cl)-n2cc(C(=O)N3CC(C(F)F)C3)nc21 [Example 156, [3-(difluoromethyl)azetidin-1-yl]-[(4S)-7-chloro-6-(3-fluoro-2-pyridyl)-4-methyl-8-(trifluoromethyl)-4H-imidazo[1,2-a][1,4]benzodiazepin-2-yl]methanone]	95.1	93.1	168	2.68	10800	116.1	2.06	15.5
C[C@@H]1N=C(c2ncccc2F)c2c(ccc(C(F)(F)F)c2Cl)-n2cc(C(=O)NC[C@@H](C)O)nc21 [Example 157, (4S)-7-chloro-6-(3-fluoro-2-pyridyl)-4-methyl-N-[(2R)-2-hydroxypropyl]-8-(trifluoromethyl)-4H-imidazo[1,2-a][1,4]benzodiazepine-2-carboxamide]	60.1	60	191	2.91	11100	185.8	2.27	13.4
CCOC1CN(C(=O)c2cn3c(n2)[C@H](C)N=C(c2ncccc2F)c2c-3ccc(C(F)(F)F)c2Cl)C1 [Example 158, (3-ethoxyazetidin-1-yl)-[(4S)-7-chloro-6-(3-fluoro-2-pyridyl)-4-methyl-8-(trifluoromethyl)-4H-imidazo[1,2-a][1,4]benzodiazepin-2-yl]methanone]	94.6	94.1	144	2.44	> 30000	318.9	2.50	21.7
C[C@@H]1N=C(c2ncccc2F)c2c(ccc(C(F)(F)F)c2Cl)-n2cc(C(=O)N3CC(C)(O)C3)nc21 [Example 160, (3-hydroxy-3-methyl-azetidin-1-yl)-[(4S)-7-chloro-6-(3-fluoro-2-pyridyl)-4-methyl-8-(trifluoromethyl)-4H-imidazo[1,2-a][1,4]benzodiazepin-2-yl]methanone]	66.4	66.3	177	2.77	13300	201.1	2.30	19.2
C[C@@H]1N=C(c2ncccc2F)c2c(ccc(C(F)(F)F)c2Cl)-n2cc(C(=O)N3CC(F)C3)nc21 [Example 161, (3-fluoroazetidin-1-yl)-[(4S)-7-chloro-6-(3-fluoro-2-pyridyl)-4-methyl-8-(trifluoromethyl)-4H-imidazo[1,2-a][1,4]benzodiazepin-2-yl]methanone]	72.8	72.7	165	2.65	> 30000	412.4	2.62	21.3
Cc1c(C(=O)NC[C@@H](C)O)nc2n1-c1ccc(C(F)(F)F)c(Cl)c1C(c1ncccc1F)=N[C@H]2C [Example 162, (4S)-7-chloro-6-(3-fluoro-2-pyridyl)-1,4-dimethyl-N-[(2R)-2-hydroxypropyl]-8-(trifluoromethyl)-4H-imidazo[1,2-a][1,4]benzodiazepine-2-carboxamide]	54.4	55.7	148	2.48	11700	210.1	2.32	13.6
CC1CN(C(=O)c2cn3c(n2)[C@H](C)N=C(c2ncccc2F)c2c-3ccc(C(F)(F)F)c2Cl)C1 [Example 163, (3-methylazetidin-1-yl)-[(4S)-7-chloro-6-(3-fluoro-2-pyridyl)-4-methyl-8-(trifluoromethyl)-4H-imidazo[1,2-a][1,4]benzodiazepin-2-yl]methanone]	87.1	101	136	2.36	13500	134.0	2.13	20.6
C[C@@H]1N=C(c2ncccc2F)c2c(ccc(C(F)(F)F)c2Cl)-n2cc(C(=O)NCC3(O)CC3)nc21 [Example 164, (4S)-7-chloro-6-(3-fluoro-2-pyridyl)-N-[(1-hydroxycyclopropyl)methyl]-4-methy-8-(trifluoromethyl)-4H-imidazo[1,2-a][1,4]benzodiazepine-2-carboxamide]	35.2	33.7	177	2.77	8520	253.2	2.40	10.6
C[C@@H]1N=C(c2ncccc2F)c2c(ccc(C(F)(F)F)c2Cl)-n2cc(C(=O)N[C@H]3C[C@H](O)C3)nc21 [Example 165, (4S)-7-chloro-6-(3-fluoro-2-pyridyl)-N-(trans-3-hydroxycyclobutyl)-4-methyl-8-(trifluoromethyl)-4H-imidazo[1,2-a][1,4]benzodiazepine-2-carboxamide]	36.2	43.3	183	2.83	7770	179.6	2.25	9.55
C[C@@H]1N=C(c2ncccc2F)c2c(ccc(C(F)(F)F)c2Cl)-n2cc(C(=O)N[C@H]3C[C@@H](O)C3)nc21 [Example 166, (4S)-7-chloro-6-(3-fluoro-2-pyridyl)-N-(cis-3-hydroxycyclobutyl)-4-methyl-8-(trifluoromethyl)-4H-imidazo[1,2-a][1,4]benzodiazepine-2-carboxamide]	46.5	43.4	184	2.84	10200	234.5	2.37	9.14
